Source: US4419351A, “Platinum-dioxopyrimidine complexes” (priority 1978, dated 1983)
Like-named read-outs stand apart in the source and are kept apart here. Blank lines part the entries; values can stand above or below the molecule they belong to.

Assays:
[1] = tested on: ascites Sarcoma-180 tumor; assay: chemotherapeutic activity vs ascites Sarcoma-180 tumor, single i.p. injection on day 1 (Table 2 survey); format: in vivo, Swiss White mice; conditions: for # of cures / Dose of Best % ILS / Toxic Level / Best % ILS (increase in lifespan): carrier saline; for Dose of Best % ILS / Toxic Level / Best % ILS (increase in lifespan): single i.p. day 1; for Toxic Level: 2 or more of 6 animals died within 8 days; for Best % ILS (increase in lifespan): max 100%
Protocol: The chemotherapeutic activities of the "Platinum Blue" complexes were determined using the ascites Sarcoma-180 tumor in Swiss White mice. The protocols for these tests were as follows: Random bred female Swiss White mice (Spartan Laboratory, Williamston, Mich.) of 18-20 grams weight were randomized in groups of six. The ascites cells were removed from the peritoneal cavities of animals with approximately 10 day old ascites tumors. The cells were washed several times with 0.85% saline and spun down each time in a refrigerated centrifuge for 3-5 minutes at 750 r.p.m. After the blood was removed from the cells, they were diluted with 0.85% saline solution and counted in a hemocytometer. A final dilution of 2×10^7 cells/ml. in saline was made. Each animal received 0.2 ml. of this suspension (4×10^6 cells/animals). This was injected intraperitoneally on day 0 of each test. Two groups (12 animals) were kept as negative controls, and the test was terminated at twice the mean day of death of the negative controls. […] All test compounds were injected i.p. on day one as a 0.5 ml. volume of the compound in a carrier of water, physiologic saline or arachis oil (peanut oil). Soluble compounds were always tested in appropriate solutions, the insoluble ones as a slurry. The slurry was sonicated for periods of up to 10 minutes to insure uniformity of dispersion just prior to injections. […] Retests were performed if a sufficient level of drug toxicity at the highest dose was not reached. Animals still alive at the completion of the tests were considered to have died on the day of evaluation. Animals showing no abdominal distention (by palpation, or visibly) on this day were considered cured.
The compounds tested were usually freshly prepared and purified. The compounds kept for further testing were stored in a vacuum dessicator in a dark refrigerator to prevent deterioration. […] Toxic levels are considered to be that concentration where 2 or more of the 6 animals at the dose died within 8 days of injection.
The letter A indicates the "blue" or first isolated precipitate, the letter B, the "green" or second precipitate.

L1210 Tumor = assay: effects on L1210 tumor (Table 4); format: in vivo, BDF Mice; conditions: for Survivors: at 200% ILS
From the text: (§1) Tables 4-7, respectively, tabulate the results achieved when employing the complexes of the invention against the L1210, MCDV 12, (Rauscher Leukemia, virus-induced), Ehrlich Ascites and the ADJ PC6A (myeloma) tumors.
^a All experiments were terminated arbitrarily at 200% ILS and any
survivors were tabulated at that time. All therapy was started on the
third day after tumor transplant. Untreated tumor controls died 10-11 day
after transplant. In some instances efforts to reproduce above results
have shown considerable variability.

[2] = tested on: MCDV 12 (Rauscher Leukemia, Virus Induced); assay: effects on MCDV 12 (Rauscher Leukemia, virus induced) (Table 5); format: in vivo, BALB/C Mice; conditions: for Survivors: at 200% ILS
From the text: as §1
^a All experiments were terminated arbitrarily at 200% ILS and
survivors tabulated at that time. All therapy was started on third day
after tumor transplant. Untreated tumor controls died 10-11 days after
transplant. In some instances, efforts to reproduce above results have
shown considerable variability.

ADJ/PC6A Tumor = assay: effects on ADJ/PC6A tumor (Table 7); format: in vivo, Female, C^- Mice; conditions: i.p., single dose, 24 days after tumor implant
[3] = tested on: Mice Kidneys (proximal convoluted tubules); design: species or system female Swiss White mice; conditions: mouse, in vivo
From the text: The protocols for these tests were as follows: Each group contained six female Swiss White mice; the tumored animals were given a transplant of a solid Sarcoma-180 tumor on day 0 and treatment was initiated on day 1; the animals were sacrificed on day 10 and the kidneys removed and prepared for histological evaluation; control groups were non-tumored, non-treated animals, and tumored, non-treated animals. Multiple sections of each kidney were examined. […] The saturation concentration cannot be specified other than an estimate of less than 1 mg/100 ml. A very brief summary of the results are compiled in Table 8. The histopathologic degenerative changes are dose dependent in all cases.

[4] = tested on: ascites Sarcoma-180 tumor; assay: schedule dependency tests of antitumor activity (Table 3); format: in vivo, Swiss White mice; conditions: for # of cures / Best % ILS / Dose of Best % ILS: saline
Protocol: The chemotherapeutic activities of the "Platinum Blue" complexes were determined using the ascites Sarcoma-180 tumor in Swiss White mice. The protocols for these tests were as follows: Random bred female Swiss White mice (Spartan Laboratory, Williamston, Mich.) of 18-20 grams weight were randomized in groups of six. The ascites cells were removed from the peritoneal cavities of animals with approximately 10 day old ascites tumors. The cells were washed several times with 0.85% saline and spun down each time in a refrigerated centrifuge for 3-5 minutes at 750 r.p.m. After the blood was removed from the cells, they were diluted with 0.85% saline solution and counted in a hemocytometer. A final dilution of 2×10^7 cells/ml. in saline was made. Each animal received 0.2 ml. of this suspension (4×10^6 cells/animals). This was injected intraperitoneally on day 0 of each test. Two groups (12 animals) were kept as negative controls, and the test was terminated at twice the mean day of death of the negative controls. […] Soluble compounds were always tested in appropriate solutions, the insoluble ones as a slurry. The slurry was sonicated for periods of up to 10 minutes to insure uniformity of dispersion just prior to injections. […] Retests were performed if a sufficient level of drug toxicity at the highest dose was not reached. Animals still alive at the completion of the tests were considered to have died on the day of evaluation. Animals showing no abdominal distention (by palpation, or visibly) on this day were considered cured.

Ehrlich Ascites Tumor = assay: survival times of mice bearing the Ehrlich ascites tumor (Table 6); format: in vivo; conditions: 7 mg/kg; for Mean Survival Time (+ S.D.): single i.p. day 3
From the text: as §1
^a 6 mice/group; each mouse received 10^7 ascites tumor cells on
day 0; treatment was as a single i. p. injection on day 3.

[5] = tested on: Escherichia coli-wild type; assay: anti-microbial activity, growth in test tube cultures (Table 9); format: cell-based
Protocol: The following procedure was utilized to test the anti-microbal activity of the platinum complexes. The tests were performed with Escherichia coli-wild type, growing in test tube cultures. Using standardized techniques, growth in the medium was examined after the incorporation of the various test chemicals, using the increase in the optical density of the medium as against time. The bacteria were also periodically examined under a phase contrast microscope for evidence of elongation (filmentation).

SMILES: CC1CNC(=O)NC1=O (stereo not drawn) [5,6-dihydrothymine Class IA]
# of cures ([1]; 6 animals per test): 2 | Dose of Best % ILS [1]: 200 mg/kg | Toxic Level [1]: 400 mg/kg | Best % ILS (increase in lifespan) [1]: 87% | % ILS (L1210 Tumor; 30.63 mg/kg q3 hr × 8): 30% | Survivors (L1210 Tumor; 30.63 mg/kg q3 hr × 8): 0/3 | % ILS (L1210 Tumor; 50 mg/kg qid × 5): 36% | Survivors (L1210 Tumor; 50 mg/kg qid × 5): 0/3 | % ILS (L1210 Tumor; 61.25 mg/kg q3 hr × 8): 0% | Survivors (L1210 Tumor; 61.25 mg/kg q3 hr × 8): 0/3 | % ILS (L1210 Tumor; 100 mg/kg qid × 5): 45% | Survivors (L1210 Tumor; 100 mg/kg qid × 5): 0/3 | % ILS ([2]; 30.63 mg/kg q3 hr × 8): 75% | Survivors ([2]; 30.63 mg/kg q3 hr × 8): 1/3 | % ILS ([2]; 50 mg/kg qid × 5): 157% | Survivors ([2]; 50 mg/kg qid × 5): 2/3 | % ILS ([2]; 61.25 mg/kg q3 hr × 6): 121% | Survivors ([2]; 61.25 mg/kg q3 hr × 6): 2/3 | % ILS ([2]; 100 mg/kg qid × 5): 0% | Survivors ([2]; 100 mg/kg qid × 5): 0/3 | ID 90 (90% Inhibition) (ADJ/PC6A Tumor): 25 mg/kg | LD50 (ADJ/PC6A Tumor): 135 mg/kg

SMILES: CCOC(=O)c1c[nH]c(=O)[nH]c1=O [5-carbethoxyuracil Class IA]
# of cures ([1]; 6 animals per test): 0 | Dose of Best % ILS [1]: 200 mg/kg | Toxic Level [1]: 200 mg/kg | Best % ILS (increase in lifespan) [1]: 56% | ID 90 (90% Inhibition) (ADJ/PC6A Tumor): 250 mg/kg | LD50 (ADJ/PC6A Tumor): 670 mg/kg

SMILES: O=c1[nH]cc(CO)c(=O)[nH]1 [5-hydroxymethyluracil Class IA]
# of cures ([1]; 6 animals per test): 2 | Dose of Best % ILS [1]: 100 mg/kg | Toxic Level [1]: 200 mg/kg | Best % ILS (increase in lifespan) [1]: 98% | ID 90 (90% Inhibition) (ADJ/PC6A Tumor): 42 mg/kg | LD50 (ADJ/PC6A Tumor): 40 mg/kg

SMILES: O=c1cc(Cl)[nH]c(=O)[nH]1 [6-chlorouracil Class IA]
# of cures ([1]; 6 animals per test): 3 | Dose of Best % ILS [1]: 200 mg/kg | Toxic Level [1]: > 200 mg/kg | Best % ILS (increase in lifespan) [1]: 88% | ID 90 (90% Inhibition) (ADJ/PC6A Tumor): 190 mg/kg | LD50 (ADJ/PC6A Tumor): 200 mg/kg

SMILES: CC#N.CC#N.[Cl][Pt][Cl] [Pt(CH3 CN)2 Cl2, reference compound]
# of cures ([1]; 6 animals per test): 1 | Dose of Best % ILS [1]: 25 mg/kg | Toxic Level [1]: 50 mg/kg | Best % ILS (increase in lifespan) [1]: 83% | gross hepatic damage ([1]; in words): exceptions

saturation concentration in saline: less than 1 mg/100 ml
SMILES: [Cl][Pt+2][Cl].[NH-]C1CCCC1.[NH-]C1CCCC1 [cis-dichloro(bis)cyclopentylamineplatinum(II)]
histopathologic degenerative changes at higher dose levels [3]: generalized vacuolar (hydropic) degeneration of the proximal convoluted tubules

SMILES: N.N.[Cl][Pt][Cl] [cis-dichlorodiammineplatinum(II)]
Dose of Best % ILS [1]: 7 mg/kg | Best % ILS (increase in lifespan) [1]: 49 (S.D ± 2.82) % | # of cures ([1]; positive control, of 12 animals): 1 | # of cures ([4]; day 1, 1 injection): 1 | Best % ILS ([4]; day 1, 1 injection): 42 (S.D. ± 3.1) % | Dose of Best % ILS ([4]; day 1, 1 injection): 7 mg/kg | Best % ILS ([4]; every 5th day, 5 injections): 83% | Dose of Best % ILS ([4]; every 5th day, 5 injections): 5 mg/kg | # of cures ([4]; every 5th day, 5 injections, 6 animals per test): 3 | Best % ILS ([4]; every 3 hrs., 8 injections): 86% | Dose of Best % ILS ([4]; every 3 hrs., 8 injections): 1 mg/kg | # of cures ([4]; every 3 hrs., 8 injections, 6 animals per test): 5 | animals died within 9 days of start (remainder cured) ([4]; every day, 5 injections, 3 mg/kg): Three | Best % ILS ([4]; every day, 5 injections): 19% | Dose of Best % ILS ([4]; every day, 5 injections): 3 mg/kg | # of cures ([4]; every day, 5 injections, 6 animals per test): 3 | % ILS ([2]; 5 mg/kg × 1): 146% | Survivors ([2]; 5 mg/kg × 1): 2/3 | % ILS ([2]; 8 mg/kg × 1): 62% | Survivors ([2]; 8 mg/kg × 1): 0/2 | % ILS ([2]; 16 mg/kg × 1): -15% | Survivors ([2]; 16 mg/kg × 1): 0/3 | % Increase in Mean Survival Time (Ehrlich Ascites Tumor; first experiment): 307% | Mean Survival Time (+ S.D.) (Ehrlich Ascites Tumor; first experiment (control 8.3 days)): 33.8 ± 16.9 days | animals that survived > 60 days (Ehrlich Ascites Tumor; first experiment, 6 mice/group): 2 animals | % Increase in Mean Survival Time (Ehrlich Ascites Tumor; second experiment): 194% | Mean Survival Time (+ S.D.) (Ehrlich Ascites Tumor; second experiment (control 10.1 days)): 29.7 ± 4.2 days | ID 90 (90% Inhibition) (ADJ/PC6A Tumor): 1.6 mg/kg | histopathologic degenerative changes at higher dose levels [3]: generalized vacuolar (hydropic) degeneration of the proximal convoluted tubules | Observed Renal Histopathological Changes ([3]; 0.5 mg/kg): normal | Observed Renal Histopathological Changes ([3]; 1 mg/kg): normal | Observed Renal Histopathological Changes ([3]; 2 mg/kg): mild degenerative changes (cloudy swelling) | Observed Renal Histopathological Changes ([3]; 3 mg/kg): mild degenerative changes (cloudy swelling) | Observed Renal Histopathological Changes ([3]; 7 mg/kg): extensive degenerative changes (hydropic degeneration) | Optical Density of Bacterial Cultures ([5]; 7 ppm, 1:45 p.m., first run): .74 | Optical Density of Bacterial Cultures ([5]; 7 ppm, 2:45 p.m., first run): .78 | Optical Density of Bacterial Cultures ([5]; 7 ppm, 9:30 a.m., first run): .19 | Optical Density of Bacterial Cultures ([5]; 7 ppm, 10:45 a.m., first run): .31 | Optical Density of Bacterial Cultures ([5]; 7 ppm, 11:45 a.m., first run): .44 | Optical Density of Bacterial Cultures ([5]; 7 ppm, 12:45 p.m., first run): .62 | Optical Density of Bacterial Cultures ([5]; 10 ppm, 1:00 p.m., second run): .49 | Optical Density of Bacterial Cultures ([5]; 10 ppm, 2:00 p.m., second run): .55 | Optical Density of Bacterial Cultures ([5]; 10 ppm, 3:20 p.m., second run): .60 | Optical Density of Bacterial Cultures ([5]; 10 ppm, 9:30 a.m., second run): .12 | Optical Density of Bacterial Cultures ([5]; 10 ppm, 11:00 a.m., second run): .26 | Optical Density of Bacterial Cultures ([5]; 10 ppm, 12:00 p.m., second run): .37
